Measured values published in article PMC11510561, “Synthesis, Urease Inhibition, Molecular Docking, and Optical Analysis of a Symmetrical Schiff Base and Its Selected Metal Complexes” (Molecules, 2024).
Read-outs that look alike come from different tables or passages of the source.

Key:
urease [1] = molecular target: T1, urease (Canavalia ensiformis, UniProt P07374); experiment: biochemical
Method: The indophenol method as outlined by Weatherburn was employed to assess urease activity by measuring the produced ammonia. Briefly, incubation of the reaction mixture was carried out at 37 degrees Celsius for half an hour on the microplate reader with 96-well plates. The operated mixture consisted of 20 microliters of the enzyme (from 5 units per ml of stock solution), 20 µL of the tested compound (5 mg/mL stock solution), and 50 microliters of the buffer solution. Thiourea was employed as a reference inhibitor, and percentage inhibition was calculated by […].

urease [2] = molecular target: T1, urease; settings: cited from earlier work
[3] = ref [36], read-out: IC50 (urease)

T1 sequence (P07374 whole entry, looked up): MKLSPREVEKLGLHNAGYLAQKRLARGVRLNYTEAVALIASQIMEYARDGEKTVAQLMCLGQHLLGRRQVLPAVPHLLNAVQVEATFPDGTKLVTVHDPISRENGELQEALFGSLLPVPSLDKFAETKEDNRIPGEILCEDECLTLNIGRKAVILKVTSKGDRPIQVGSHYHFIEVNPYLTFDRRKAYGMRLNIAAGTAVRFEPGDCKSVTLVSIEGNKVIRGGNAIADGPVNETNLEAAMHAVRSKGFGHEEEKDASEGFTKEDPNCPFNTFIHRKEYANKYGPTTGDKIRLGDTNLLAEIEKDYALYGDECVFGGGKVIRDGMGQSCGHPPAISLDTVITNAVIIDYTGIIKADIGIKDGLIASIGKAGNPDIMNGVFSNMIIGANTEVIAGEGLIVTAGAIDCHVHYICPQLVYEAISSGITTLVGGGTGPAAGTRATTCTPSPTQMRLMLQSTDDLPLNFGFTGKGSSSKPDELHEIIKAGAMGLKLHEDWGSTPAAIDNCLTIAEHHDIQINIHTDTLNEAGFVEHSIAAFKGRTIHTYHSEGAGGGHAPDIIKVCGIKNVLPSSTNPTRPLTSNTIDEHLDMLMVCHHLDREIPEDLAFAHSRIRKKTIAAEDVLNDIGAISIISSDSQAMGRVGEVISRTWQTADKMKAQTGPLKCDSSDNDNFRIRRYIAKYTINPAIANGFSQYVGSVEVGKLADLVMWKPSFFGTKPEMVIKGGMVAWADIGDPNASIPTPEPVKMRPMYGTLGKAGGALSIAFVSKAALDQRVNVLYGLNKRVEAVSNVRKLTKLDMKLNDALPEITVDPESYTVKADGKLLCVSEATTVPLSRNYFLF

NC(N)=S [Thiourea]
IC50 (urease [1]; indophenol method, 37 degrees Celsius, half an hour, thiourea as reference, read-out: Urease Inhibition IC50): 20.7 µM | IC50 (urease [2]; ref [35], read-out: IC50 (urease)): 22 µM | IC50 (urease [2]; [3]): 23 µM

Nn1c(SCC(=O)O)nnc1-c1ccccn1 [Compound H2L]
IC50 (urease [2]; read-out: IC50 (urease), ref [38]): 14.7 ± 1.4 µM

COc1ccc(-c2n[nH]c(=O)n2/N=C/c2cccc(/C=N/n3c(-c4ccc(OC)cc4)n[nH]c3=O)n2)cc1 [Compound 6, 4,4′-((1E,1′E)-(Pyridine-2,6-diylbis(methanylylidene))bis(azanylylidene))bis(3-(4-methoxyphenyl)-1H-1,2,4-triazol-5(4H)-one)]
IC50 (urease [1]): 21.8 ± 1.88 µM | melting point: 181 to 183 °C

CC(=O)NO [Acetohydroxamic acid]
IC50 (urease [2]; ref [37], read-out: IC50 (urease)): 7.9 µM | IC50 (urease [2]; unit inferred, ref [39], read-out: IC50 (urease), reference drug): 32.1 µM

NC(=O)NO [Hydroxyurea]
IC50 (urease [2]; [3]): 100 µM

Nn1c(SCC(=O)O)nnc1-c1ccncc1 [HL]
IC50 (urease [2]; read-out: IC50 (urease), ref [37]): 15.1 ± 2.22 µM

Nn1c(-c2ccncc2)n[nH]c1=S [Compound C00005]
IC50 (urease [2]; read-out: IC50 (urease), ref [39]): > 100 µM
